Molecules are shown by their SMILES. Calls of active or inactive are those of the source.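 The calls were made as follows: active = compounds lowering yeast growth whose fitted half-maximal concentration is at most twice the top tested dose; inconclusive = flat partial growth drop between 30 and 70 percent, or poor fit; inactive = the rest.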

Test system in the first experiment: not listed separately
Description: yeast fermentative growth inhibition – glucose medium, OD600, dry powder, dose response (AID 602187). The following applies: S. cerevisiae growth in glucose medium, OD600, 48 h; at 19.5 µM (top of the series).
For the molecule `CCOC(=O)N1C(=O)C2(CCCCC2)N(c2ccc(C)cc2)C1=S`, the activity change, negative = inhibition is 13.1% (inactive).
Turning to `O=C(Nc1nnc(-c2ccc3c(c2)CCCC3)o1)c1ccc(Cl)cc1Cl`, the activity change, negative = inhibition was -3.17% (inactive).
The same measure, in the same setting: the same measure for `O=C(Nc1nnc(-c2ccc3c(c2)CCCC3)o1)c1ccccc1`: -13.1% (inactive); for `Cc1ccc(C(=O)Nc2nnc(-c3ccccc3)o2)cc1C`: 28.3% (inactive); for `O=C(Nc1nc(-c2ccccc2)cs1)c1ccc(Br)s1`: 25.4% (inactive).
Consider `Cc1cc(C)n(-c2nc3ccccc3c(=O)n2OCC#N)n1`, for which the activity change, negative = inhibition is -16.8% (inactive).
As to `NC(=O)c1cccc(C(=O)Nc2nc(-c3ccc4c(c3)CCCC4)cs2)c1`, the activity change, negative = inhibition is 9.9% (inactive).
Regarding `O=C(Nc1nc(-c2ccccn2)cs1)c1ccccc1`, the activity change, negative = inhibition was -9.7% (inactive).
Still for that read-out and setting: the same measure for `O=C(Nc1nc(-c2ccc3c(c2)CCCC3)cs1)c1ccccc1`: 34% (inactive); for `C/C(=N\NC(=O)c1cc2ccccc2cc1O)c1ccccn1`: -15% (inactive); for `COc1ccc(-c2nnc(NC(=O)c3ccc(S(=O)(=O)N4CCCc5ccccc54)cc3)o2)cc1`: 19.9% (inactive).
With `Oc1c(C(c2ccc(Cl)cc2)N2CCCC2)ccc2cccnc12` (centres undefined), the activity change, negative = inhibition is 7.98% (inactive).

Still in this experiment, the particulars now being: S. cerevisiae growth in glucose medium, OD600, 48 h; at 23.5 µM (top of the series).
In the case of `Oc1c(CN2CCN(c3ccccc3)CC2)cc(Cl)c2cccnc12`, the activity change, negative = inhibition is 11.7% (inactive).

The test system of a further experiment is S. cerevisiae growth in glucose medium, OD600, 48 h. Described as above.
Details: not given
What is called AC50 is the concentration giving half of the maximal activity seen. Consider `C=CCNC(=S)N/N=C(\C)c1ccccn1`, for which the AC50 is 6.93 µM.
Turning to `Oc1c(CN2CCc3ccccc3C2)cc(Cl)c2cccnc12`, the AC50 is 15.3 µM.
`O=C(Nc1nc(-c2ccccn2)cs1)c1ccc(Cl)s1`: the AC50 was 1.75 µM.
Turning to `O=C(Nc1nc(-c2ccccn2)cs1)c1ccc(Br)s1`, the AC50 is 0.737 µM.
Turning to `Oc1c(C(c2ccccc2Cl)N2CCCCC2)ccc2cccnc12` (centres undefined), the half-maximal activity concentration (AC50) was 16.3 µM.
Turning to `Cc1ccc(-c2nc3c(Cl)cc(Cl)cc3c(=O)n2O)cc1`, the AC50 is 2.01 µM.
In the case of `Cc1ccc(C(=O)Nc2nc(-c3ccccn3)cs2)cc1`, the AC50 is 6.06 µM.
As to `CCCC(=O)NC(c1cccs1)c1cc(Cl)c2cccnc2c1O` (centres undefined), the AC50 was 5.88 µM.
With `O=C(NNC(=S)Nc1ccc(Cl)c(Cl)c1)c1ccccn1`, the half-maximal activity concentration (AC50) was 22 µM.
Still for that read-out and setting: the same measure for `O=C(Oc1c(Cl)cc(Cl)c2cccnc12)c1ccco1`: 0.346 µM; for `CN1CCN(C(c2ccc(C(F)(F)F)cc2)c2ccc3cccnc3c2O)CC1` (centres undefined): 3.32 µM.

Source of the values: PubChem BioAssay AID602187 (Broad Institute, 2012).
